# In patent US4149007A, “C14 Phenyl-substituted derivatives of prostaglandin analogues” (Miles Laboratories, Inc., priority 1977, dated 1979):
# Tests used:
# human platelet [1] = settings: compared with compounds of Formula IV; cited from earlier work
# tracheal smooth muscle = settings: in vitro, most mammalian respiratory tracts; cited from earlier work
# blood platelets = settings: in vitro; cited from earlier work
# adrenal glands = settings: hypophysectomized rats; cited from earlier work
# growth hormone = settings: rats; cited from earlier work
# [2] = system: smooth muscle of the vas deferens; settings: cited from earlier work
# [3] = system: motor pathways in the central nervous system; settings: cited from earlier work
# man = settings: cited from earlier work
# [4] = variety of mammals; cited from earlier work
# rat stomach fundus = test: Cascade assay: rat stomach fundus; assay type: cell-based; settings: in vitro, smooth muscle stimulant ED50 scored
# Method: (§1) (A) effects on the rat stomach, rat colon, chick rectum, and rabbit aorta in vitro (cascade assay);
# (§2) The smooth muscle stimulant effects of test compounds were determined simultaneously in four different tissues that are known to be reactive to naturally occurring prostaglandins. Segments of rat stomach fundus, rat colon, chick rectum and rabbit aortic strip were obtained as described by: Vane, J. R., Brit. J. Pharmacol., 12: 344 (1957); Regoli, D. and Vane, J. R., Brit. J. Pharmacol., 23: 351 (1964); Mann, M. and West, G. B., Brit. J. Pharmacol., 5: 173 (1950); and Furchgott, R. F. and Bhadrakom, R., J. Pharmacol. Exper. Ther., 108: 129 (1953). One end of each preparation was tied to the bottom of a 10 ml tissue chamber and the other to a force displacement transducer (Grass FT-03) for continuous tension recording. The stomach, colon, and rectum segments were stretched to an initial tension of 1 g, while the aortic strip was subjected to 4 g. All preparations were left undisturbed for 1 hour prior to testing. […]
# (§3) Test compounds were diluted from stock solutions so as to administer quantities ranging from 0.0001 to 100,000 ng in a volume of 0.5 ml. […] Maximal increases in tension after each dose were measured and the results were used to plot dose-response curves. […]
# (§4) Activity in each tissue was scored according to the following scale: […]
# chick rectum = test: Cascade assay: chick rectum; assay type: cell-based; settings: in vitro, smooth muscle stimulant ED50 scored
# Method: as §1, §2, §3, §4
# rabbit aortic strip = test: Cascade assay: rabbit aortic strip; assay type: cell-based; settings: in vitro, smooth muscle stimulant ED50 scored
# Method: as §1, §2, §3, §4
# rat uterus = test: Effects on the rat uterus in vitro; assay type: cell-based; settings: dose producing response 50% that of carbachol
# Method: (B) effect on the rat uterus in vitro;
# The uterine stimulant effect of test compounds was determined in segments of uterus obtained from rats (140-160 g) pretreated subcutaneously with 1 mg/kg of diethylstilbesterol 18 hours before the experiment. The tissues were placed in 10 ml chambers filled with de-Jalon solution at 29° C., were aerated and bubbled with 95% O2 and 5% CO2, and were prepared for isometric recording with force displacement transducers. Preparations were stretched to an initial tension of 1 g and were left undisturbed for 30 minutes. Carbachol (1 mcg/ml) was then added to the bath and a response was recorded. After a ten minute interval the carbachol procedure was repeated. Responses to increasing concentrations of a test compound (0.001 to 10 mcg/ml with one log intervals) were then recorded every 10 minutes. Preparations were washed four times after each response. All doses of compounds were administered in a 0.1 ml volume. Because it has been observed that the magnitude of the second response to carbachol (approximately 10% greater than the first) is close to the maximal response of the tissue, such value was taken as a measure of the sensitivity of a particular segment. Responses to each concentration of the test compound were expressed in terms of percentage of the second response to carbachol and the ED50 (dose producing a response 50% that of carbachol) was calculated graphically.
# Activity was scored according to the following scale: […]
# rat = test: Effects on gastric secretion in the rat; assay type: in vivo; settings: pylorus ligated, 1.5 mg/kg s.c. twice (total 3.0 mg/kg), 4 hours
# Method: (F) effect on gastric secretion in the rat;
# A procedure based on that described by Lipman, W. (J. Pharm. Pharmacol., 21: 335 [1968]) was used to assess the influence of test compounds on gastric secretion. Rats of one sex weighing 150 to 200 g were randomly divided into groups of six animals each and fasted for 48 hours previous to the experiments, water being available ad libitum. The animals were anesthetized with ether, the abdomen opened through a midline incision, and the pylorus ligated. Test compounds were diluted from stock solution so as to administer a dose of 1.5 mg/kg in a volume equivalent to 1 ml/kg. Subcutaneous injections were applied immediately after surgery and again 2 hours later, so that a total dose of 3.0 mg/kg was administered. Dilutions were made with phosphate buffer (pH 7.38) as recommended by Lee et al. (Prostaglandins, 3: 29 [1973]) in order to insure adequate stability of drugs at the subcutaneous depot. […]
# Four hours after pyllric ligation the animals were killed with ether, the cardias ligated, and the stomachs removed. The volume of gastric secretion was measured and the contents centrifuged at 5000 rpm for 10 minutes. […]
# Volume and total acid values of the treated group were compared with those of the controls […]. Antisecretory activity was scored according to the following scale: […]
# hypertensive rat = test: Effects on blood pressure in the hypertensive rat; assay type: in vivo; set-up: key: 0: Not significant at any time interval; 1: Significant at one time interval; 2: Significant at two time intervals; settings: 1 mg/kg intraperitoneal; 2, 4, 6 and 9 hours
# Method: (I) effect on systolic blood pressure in the hypertensive rat
# The acute anithypertensive activity of test compounds was determined in rats made hypertensive by the procedure of Grollman (Proc. Soc. Exper Biol. Med., 57: 102 [1944]). Female rats weighing between 60 and 100 g were anesthetized with ether, the right kidney approached through a flank retroperitoneal incision, decapsulated and tied with a figure-of-eight-ligature. The animals were left to recover and two weeks later were again anesthetized and the contralateral kidney removed. […]
# Blood pressure was measured in the tail with an inflatable occluding cuff placed at the base of the extremity and a pulse detector located distally. The cuff was inflated to approximately 300 mmHg and was slowly deflated until pulsations appeared, indicating the level of systolic pressure; diastolic pressure was not recorded by this procedure. […] In all cases, three pressure readings were obtained in succession and mean values were calculated thereof.
# Experiments were carried out in groups of five hypertensive rats in which systolic pressure was determined immediately before and 2, 4, 6 and 9 hours after intraperiotoneal administration of the test compound at a dose of 1 mg/kg. Drugs were diluted from stock solutions with phosphate buffer (Lee et al., Prostaglandins, 3: 29 [1973]), so as to inject this quantity in a volume of 1 ml/kg. […]
# human platelet [5] = test: Inhibition of human platelet aggregation in vitro; assay type: cell-based; settings: human platelet rich plasma, collagen-induced
# Method: (E) effect on human platelet aggregation in vitro; and
# The ability of test compounds to inhibit platelet aggregation was determined by a modification of the turbidometric technique of Born, G. V. R. (Nature, 194: 927 [1962]). Blood was collected from human volunteers, who had not ingested aspirin or aspirin-containing products within the preceding two weeks, in heparinized containers and was allowed to settle for one (1) hour. The platelet rich plasma (prp) supernates were collected and pooled. Siliconized glassware was used throughout.
# In a representative assay, 1.9 ml of PRP and 0.2 ml of test compound at the appropriate concentration ([…]), or 0.2 ml of distilled water (control procedure) were placed in sample cuvettes. The cuvettes were placed in a 37° C. incubation block for 15 minutes, and then in a spectrophotometer linked to a strip chart recorder. After 30-60 seconds, 0.2 ml of a solution, prepared by diluting a calf-skin collagen solution 1:9 with Tyrodes' Solution, was added to each cuvette. Platelet aggregation was evidenced by a decrease in optical density.
# An ED50 value was then determined graphically.
# rat colon = test: Cascade assay: rat colon; assay type: cell-based; settings: in vitro, smooth muscle stimulant ED50 scored
# Method: as §1, §2, §3, §4
compound,measurement,setting,value
CCCCC[C@H](O)/C=C/[C@H]1[C@H](O)CC(=O)[C@@H]1CCCCCCC(=O)O [PGE1],"inhibition of human platelet aggregation, comparison with natural prostaglandin",human platelet [1],displays similar activity
same,effect on tracheal smooth muscle,tracheal smooth muscle,relax
same,aggregation of blood platelets,blood platelets,inhibits aggregation of blood platelets in vitro
same,steroidogenesis in the adrenal glands,adrenal glands,stimulate stereoidogenesis in the adrenal glands
same,release of the growth hormone,growth hormone,increase the release of the growth hormone
same,effect on smooth muscle of the vas deferens,[2],contracts the smooth muscle of the vas deferens
same,transmission along motor pathways in the central nervous system,[3],retards
CCCCC[C@H](O)/C=C/[C@H]1C=CC(=O)[C@@H]1CCCCCCC(=O)O [PGA1],"gastric secretion, man",man,exhibits similar activity in man
same,synthesis of the growth hormone,growth hormone,increases its synthesis
CCCCC[C@H](O)/C=C/[C@@H]1[C@@H](CCCCCCC(=O)O)[C@@H](O)C[C@H]1O [PGF1α],luteolytic effect,[4],act as luteolytic factors
same,steroidogenesis in the adrenal glands,adrenal glands,stimulate stereoidogenesis in the adrenal glands
"COC(=O)CCCc1ccccc1CC1C(=O)CCC1/C=C(\c1ccccc1)[C@H](C)O (stereo partly drawn) [Example 4, Methyl 5,6,17,18,19,20-hexanor-4,7,-inter-o-phenylene-14-phenyl-15S-hydroxy-9-oxo-ent-prost-13E-en-1-oate]","Cascade, Stomache: activity value (ED50)",rat stomach fundus,0 (>10000)
same,"Cascade, Rectum: activity value (ED50)",chick rectum,0 (>10000)
same,"Cascade, Aorta: activity value (ED50)",rabbit aortic strip,0 (>10000)
same,Rat Uterus: activity value (ED50),rat uterus,0 (>10)
same,Gastric Secretion: activity value (% decrease in acidity),rat,0 (<26)
same,Blood Pressure Hypertensive Rat: activity value,hypertensive rat,0
same,Platelet Aggregation: activity value (ED50),human platelet [5],1 (>0.1 and ≤1.0)
same,"Cascade, Colon: activity value (ED50)",rat colon,0 (>10000)
